From patent publication US6630331B1, “Herbicides test method” (Hoechst Schering AgrEvo GmbH, priority 1997, dated 2003)

Columns and labels:
[1] = target: T1, recombinant Lotus pantothenate synthetase (Lotus japonicus, UniProt O24035); assay: Activity of recombinant Lotus pantothenate synthetase in the presence of potential effectors; format: biochemical; design: the processed recombinant protein (3-proline through 308-leucine) has a theoretical mass of 34,037.7 Da; made in house; host or cells: E. coli AT1371 (panC) transformed with pSKL; conditions: for Final activity [%]: effector 1 mM, pantoate 0.1 mM, β-alanine 1.0 mM, % of activity without effector
Experimental: 2. The preferred assay mixture to measure the pyrophosphate liberated in the PS reaction after its conversion with inorganic pyrophosphatase to inorganic phosphate comprises 100 μmol Tris.HCl (pH 8.0), 10 μmol MgSO4, 5 μmol ATP, 10 μmol […], […], 1.0 unit […] After a suitable incubation period the PS reaction is terminated either
(§1) a) by the addition of 100 μlof a reagent mixture comprising 62.3 µg malachite green hydrochloride, 1.9 mg ammoniumheptamolybdate and 0.5% (v/v) of a suitable detergent (for example Triton X-100, Tween-80 or Tergitol NPX) in 1.88 N hydrochloric acid. The resulting colour complex is stabilised by the addition after 1 minute of 50 μl of a 26% (w/v) solution of trisodium citrate dihydrate in water and after an additional 45 minutes incubation at room temperature the intensity of the colour complex is determined by measuring the extinction at 620 nm. The amount of inorganic phosphate liberated in the PS reaction is determined by reference to a standard curve generated from suitable amounts of inorganic phosphate by using the difference of extinction at 620 nm between a complete PS assay mixture and a PS assay mixture lacking pantoate. Since there are 2 molecules of inorganic phosphate liberated for every molecule of pyrophosphate formed in the PS reaction, one unit of PS activity is defined as the amount of enzyme producing 2 nmoles of inorganic phosphate per minute, and specific activity is expressed as units per milligram of protein; or
Among these compounds are the intermediates of pantothenate biosynthesis as well as coenzyme A. As coenzyme A plays a prominent role in fatty acid synthesis and degradation, various acyl forms of coenzyme A and free fatty acids were also included. […] Table 7 lists the compounds tried and their effect on PS activity which is expressed percentage of activity in an assay without additions.

[2] = target: T2, recombinant L. japonicus pantothenate synthetase (Lotus japonicus, UniProt O24035); assay: Substrate specificity of recombinant L. japonicus pantothenate synthetase; format: biochemical; conditions: for yield (%): relative to standard assay; for inhibition: analogue at 10-fold excess over pantoate
T2 construct: the processed recombinant protein (3-proline through 308-leucine) has a theoretical mass of 34,037.7 Da; made in house; host or cells: E. coli AT1371 (panC) transformed with pSKL
T2 sequence (O24035 3-308): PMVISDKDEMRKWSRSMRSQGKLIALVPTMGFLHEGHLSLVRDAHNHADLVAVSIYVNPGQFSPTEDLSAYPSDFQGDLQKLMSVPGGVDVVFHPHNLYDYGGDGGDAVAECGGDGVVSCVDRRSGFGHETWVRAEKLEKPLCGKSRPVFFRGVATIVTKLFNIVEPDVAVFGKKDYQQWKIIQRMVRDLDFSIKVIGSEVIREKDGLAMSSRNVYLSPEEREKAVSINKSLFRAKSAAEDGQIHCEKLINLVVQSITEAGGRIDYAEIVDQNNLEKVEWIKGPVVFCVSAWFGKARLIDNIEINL
Experimental: (§2) 2. The preferred assay mixture to measure the pyrophosphate liberated in the PS reaction after its conversion with inorganic pyrophosphatase to inorganic phosphate comprises 100 μmol Tris.HCl (pH 8.0), 10 μmol MgSO4, 5 μmol ATP, 10 μmol […], 0.5 μmol pantoate, 1.0 unit yeast inorganic pyrophosphatase and pantothenate synthetase in a total volume of 100 μl. After a suitable incubation period the PS reaction is terminated either
as §1, with “protein; or […]” for “protein; or”

[3] = target: T1, recombinant Lotus pantothenate synthetase; assay: Steady state kinetics of recombinant Lotus pantothenate synthetase
Experimental: as §2, §1
Km and Vmax constants for pantoate and […] were determined by measuring the effect of substrate concentration on the reaction rate.

[4] = target: purified E. coli PS (Escherichia coli, UniProt P31663); conditions: cited from earlier work
[5] = substrate: CC(C)(CO)[C@@H](O)C(=O)O; assay: purified protein, by the assay type; conditions: pH 8.0
Experimental: Km and Vmax constants for pantoate and ⊖-alanine were determined by measuring the effect of substrate concentration on the reaction rate.

[6] = substrate: NCCC(=O)O; assay: purified protein, by the assay type; conditions: pantoate at 0.5 mM const., pH 8.0
[7] = analogue 1.0 mM added to pantoate 0.1 mM and β-alanine 1 mM
[8] = analogue 1.0 mM in place of pantoate, β-alanine 1 mM
[9] = analogue 10 mM in place of pantoate, β-alanine 1 mM
[10] = other: Eadie-Hofstee (EH), β-alanine at 20 mM const.
[11] = other: Lineweaver-Burk (LB), β-alanine at 20 mM const.
[12] = other: fit of rate equation for uncompetitive substrate inhibition

purified E. coli PS, sequence (P31663 whole entry): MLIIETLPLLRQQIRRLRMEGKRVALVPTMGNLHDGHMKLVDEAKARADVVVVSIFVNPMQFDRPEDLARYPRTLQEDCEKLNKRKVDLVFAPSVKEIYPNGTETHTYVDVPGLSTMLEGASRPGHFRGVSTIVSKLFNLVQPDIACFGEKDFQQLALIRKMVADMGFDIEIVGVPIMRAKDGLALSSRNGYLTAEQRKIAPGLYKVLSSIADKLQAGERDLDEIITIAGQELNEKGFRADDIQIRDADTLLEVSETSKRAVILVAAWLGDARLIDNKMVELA

Molecule: CC(=O)SCCNC(=O)CCNC(=O)[C@H](O)C(C)(C)COP(=O)(O)OP(=O)(O)OC[C@H]1O[C@@H](n2cnc3c(N)ncnc32)[C@H](O)[C@@H]1OP(=O)(O)O [Acetyl-coA]
- activity at 100 µM ([1]; read-out: Final activity [%]): 93%

Molecule: CC(C)(COP(=O)(O)OP(=O)(O)OC[C@H]1O[C@@H](n2cnc3c(N)ncnc32)[C@H](O)[C@@H]1OP(=O)(O)O)[C@@H](O)C(=O)NCCC(=O)NCCS [CoenzymeA]
- activity at 100 µM ([1]; read-out: Final activity [%]): 100%
- activity at 200 µM ([1]; read-out: Final activity [%]): 106%
- activity at 1000 µM ([1]; read-out: Final activity [%]): 109%

Molecule: CC(C)(CO)C(=O)C(=O)O [Ketopantoate, ketopantoate]
- activity as substrate in the place of pantoate [2]: not active as substrates
- activity (units) [2, 7]: 12.18 units
- yield (%) [2, 7]: 97%
- activity (units) [2, 8]: 0 units
- yield (%) [2, 8]: 0%
- activity (units) [2, 9]: 0 units
- yield (%) [2, 9]: 0%
- inhibition [2]: did not effect significant inhibition
- Final activity [%] [1]: 97%

Molecule: CC(C)(COP(=O)(O)OP(=O)(O)OC[C@H]1O[C@@H](n2cnc3c(N)ncnc32)[C@H](O)[C@@H]1OP(=O)(O)O)[C@@H](O)C(=O)NCCC(=O)NCCSC(=O)CC(=O)O [Malonyl-coA]
- activity at 100 µM ([1]; read-out: Final activity [%]): 92%

Molecule: CCCCCCCC/C=C\CCCCCCCC(=O)SCCNC(=O)CCNC(=O)[C@H](O)C(C)(C)COP(=O)(O)OP(=O)(O)OC[C@H]1O[C@@H](n2cnc3c(N)ncnc32)[C@H](O)[C@@H]1OP(=O)(O)O [Oleoyl-coA]
- activity at 24 µM ([1]; read-out: Final activity [%]): 108%

Molecule: CCCCCCCCCCCCCCCC(=O)O [Palmitic acid]
- activity at 2 µM ([1]; read-out: Final activity [%]): 133%
- activity at 15 µM ([1]; read-out: Final activity [%]): 135%
- activity at 60 µM ([1]; read-out: Final activity [%]): 115%

Molecule: CCCCCC/C=C\CCCCCCCC(=O)O [Palmitoleic acid]
- activity at 20 µM ([1]; read-out: Final activity [%]): 116%
- activity at 100 µM ([1]; read-out: Final activity [%]): 100%

Molecule: CCCCCC/C=C\CCCCCCCC(=O)SCCNC(=O)CCNC(=O)[C@H](O)C(C)(C)COP(=O)(O)OP(=O)(O)OC[C@H]1O[C@@H](n2cnc3c(N)ncnc32)[C@H](O)[C@@H]1OP(=O)(O)O [Palmitoleoyl-coA]
- activity at 22 µM ([1]; read-out: Final activity [%]): 114%

Molecule: CC(C)(CO)[C@@H](O)C(=O)O [Pantoate, (R)-pantoate]
- optimal pantoate concentration ([3]; calculated from rate equation with fitted KS and K′S): 470 ± 30 µM
- K′S ([3]; fit of rate equation for uncompetitive substrate inhibition): 5.33 ± 0.34 mM
- kcat ([3]; from Vmax of the uncompetitive substrate inhibition fit): 0.625 ± 0.011 s⁻¹
- pantoate concentration at which substrate inhibition becomes significant ([3]; substrate inhibition of Lotus PS): ≥ 400 µM

Molecule: CC(C)(CO)[C@@H](O)C(=O)NCCC(=O)O [Pantothenate]
- activity at 1000 µM ([1]; read-out: Final activity [%]): 98%

Molecule: CC1(C)COC(=O)[C@@H]1O [Pantoyl-lactone, pantoyl-lactone]
- activity as substrate in the place of pantoate [2]: not active as substrates
- activity (units) [2, 7]: 11.53 units
- yield (%) [2, 7]: 92%
- activity (units) [2, 8]: <0.1 units
- yield (%) [2, 8]: <1%
- activity (units) [2, 9]: 0.15 units
- yield (%) [2, 9]: 1%
- inhibition [2]: did not effect significant inhibition
- activity toward pantoyl-lactone [4]: no activity
- Final activity [%] [1]: 92%

Molecule: O=P(O)(O)OP(=O)(O)O [Pyrophosphate]
- Final activity [%] [1]: 78%

Molecule: CC(C)C(=O)C(=O)O [a-KIVA]
- Final activity [%] [1]: 89%

B1: recombinant Lotus pantothenate synthetase (Lotus japonicus) (protein)
chain: PMVISDKDEMRKWSRSMRSQGKLIALVPTMGFLHEGHLSLVRDAHNHADLVAVSIYVNPGQFSPTEDLSAYPSDFQGDLQKLMSVPGGVDVVFHPHNLYDYGGDGGDAVAECGGDGVVSCVDRRSGFGHETWVRAEKLEKPLCGKSRPVFFRGVATIVTKLFNIVEPDVAVFGKKDYQQWKIIQRMVRDLDFSIKVIGSEVIREKDGLAMSSRNVYLSPEEREKAVSINKSLFRAKSAAEDGQIHCEKLINLVVQSITEAGGRIDYAEIVDQNNLEKVEWIKGPVVFCVSAWFGKARLIDNIEINL
- Km [5, 10]: 44 (EH) μM
- Vmax [5, 10]: 10.98 (EH)
- Km [5, 11]: 45 (LB) μM
- Vmax [5, 11]: 11.36 (LB)
- kcat [5, 11]: 0.63 s⁻¹
- Km [5, 12]: 42 ± 2 µM
- Vmax [5, 12]: 11.03±0.19 units
- Km ([6]; other: Eadie-Hofstee (EH)): 986 (EH) μM
- Vmax ([6]; other: Eadie-Hofstee (EH)): 9.51 (EH)
- Km ([6]; other: Lineweaver-Burk (LB)): 990 (LB) μM
- Vmax ([6]; other: Lineweaver-Burk (LB)): 9.52 (LB)
- kcat ([6]; other: Lineweaver-Burk (LB)): 0.54 s⁻¹
